Data on 4 molecules can be found in US11970712B2, “Midbrain dopamine (DA) neurons for engraftment” (MEMORIAL SLOAN-KETTERING CANCER CENTER, priority 2011, dated 2024).

Data set [1] deals with PD-iPSC and control iPSC derived cells. Nature of the data set: Cell viability assay with alamar-blue, dose response for toxin challenge. In kind it is cell-based, human. The note with it: 48 hrs, 5 and 10 uM, day 60. An excerpt: Note: this assay tests for overall cell death while the most dramatic effects were observed specifically in DA neurons (see FIG. 14). Therefore, alamar blue based quantification will likely underestimate the extent of the differential effect observed on DA neuron lineages.
Exemplary quantification of cell viability—dose response assay for toxin challenge. […] Note: this assay tests for overall cell death while the most dramatic effects were observed specifically in DA neurons (see FIG. 14). Therefore, alamar blue based quantification will likely underestimate the extent of the differential effect observed on DA neuron lineages.
Exemplary quantification of cell viability-dose response assay for toxin challenge. […] Note: this assay tests for overall cell death while the most dramatic effects were observed specifically in DA neurons (see FIG. 14). Therefore, alamar blue based quantification will likely underestimate the extent of the differential effect observed on DA neuron lineages.
(In general: The colour change of resazurin is a common sign of viable cells or microbes.)

For data set [2], the system named is control-iPSC derived TH+ DA neurons. The data set is described as follows: Toxin challenge, TH immunocytochemistry. In kind it is cell-based, human. Conditions: 5 uM, 48 hr, floor-plate protocol, day 60. The procedure:
(§1) PD-iPSC derived TH+ DA neurons derived via the floor-plate based protocols of the present inventions were more vulnerable to toxin challenge (valinomycin: mitochondria ionophore, 5 uM, 48 hr) than control-iPSC derived cells. […] G-H) low power images of immunocytochemistry for Tuj1 (red) and TH (green) by floor-plate based protocol at day 60 of differentiation: PD-iPSC of normal (G), versus toxin challenge (H) conditions and control iPSC of normal (I), versus toxin challenge (J) conditions. K-N) low power images of immunocytochemistry for Tuj1 (red) and TH (green) by MS5 based protocol at day 60 of differentiation: PD-iPSC of normal (K), versus toxin challenge (L) conditions and control iPSC of normal (M), versus toxin challenge (N) conditions.
(§2) E. DA neurons derived from genetic PD-iPS cells are more vulnerable to toxic stimulation. FIG. 24-25. PD-iPSC derived TH+DA neurons derived via floor-plate based protocol were more vulnerable to toxin challenge (valinomycin: mitochondria ionophore, 5 uM (ranging in concentration from 1-10 uM), 48 hr) than control-iPSC derived cells. […] Normal condition both of PD- and control-iPSC derived cultures obtained via MS5 based protocol (D, PD-iPSC derived cells shown), TH+ neurons following toxin challenge in PD-iPSC (E), and control-iPSC derived cultures (F) obtained via MS5 protocol. G-H) low power images of immunocytochemistry for Tuj1 (red) and TH (green) by floor-plate based protocol at day 60 of differentiation: PD-iPSC of normal (G), versus toxin challenge (H) conditions and control iPSC of normal (I), versus toxin challenge (J) conditions. K-N) low power images of immunocytochemistry for Tuj1 (red) and TH (green) by MS5 based protocol at day 60 of differentiation: PD-iPSC of normal (K), versus toxin challenge (L) conditions and control iPSC of normal (M), versus toxin challenge (N) conditions. F.
(§3) Exemplary DA neurons derived from PINK1 mutant PD-iPSC are more vulnerable to toxic stimulation. […]

For data set [3], the system named is PINK1 mutant PD-iPSC derived TH+ DA neurons. Nature of the data set: Toxin challenge, TH immunocytochemistry. Type of data set: cell-based, human. How it is done:
as §1, §2, §3

In another data set the test system is rodent GSK3β homologs. Conditions: cited from earlier work.
The test system of another data set is hESC. Nature of the data set: Immunocytochemistry, percentage of marker positive cells in differentiating cultures. In kind it is cell-based, human. How it is done: (§4) Immunohistochemistry: Cells were fixed in 4% PFA and blocked with 1% bovine serum albumin (BSA) with 0.3% Triton. Brain tissue sections were washed in cold PBS and processed similarly. Primary antibodies were diluted in 1-5% BSA or Normal Goat Serum and incubated according to manufacturer recommendations. A comprehensive list of antibodies and sources is provided as Table 6. Appropriate Alexa488, Alexa555 and Alexa647-conjugated secondary antibodies (Molecular Probes, Carlsbad, California) were used with 4′,6-diamidino-2-phenylindole (DAPI) nuclear counterstain (Thermo Fisher, Rockford, Illinois). For some analyses biotinylated secondary antibodies were used followed by visualization via DAB (3,3′-Diaminobenzidine) chromogen.
Cell Counts and Stereological Analyses. The percentages of marker positive cells at the floor plate (day 11) FIG. 1, midbrain dopamine neuron precursor (day 25), FIG. 2 and mature DA neuron stages (day 50 or later) FIGS. 3 and 11, were determined in samples derived from at least 3 independent experiments each. Images for quantification were selected in a uniform random manner and each image was scored first for the number of DAPI-positive nuclei, followed by counting the number of cells expressing the marker of interest. Data are presented as mean±SEM. Quantification of human cells (identified with anti-hNA) and TH+ neurons within grafts was performed on every tenth section where a graft was identifiable. Cell counts and graft volume was determined using the optical fractionator's probe and the Cavalieri estimator using the Stereo Investigator software (MBF bioscience, Vermont) as described previously in Tabar, et al. Nat. Biotechnol. 23:601-606 (2005), herein incorporated by reference. Data are presented as estimated total cell number and total graft volume+/−standard error of means (SEM).
as §4, with “chromogen. HPLC” for “chromogen.”
Analysis. Reversed-phase HPLC with electrochemical detection for measuring levels of dopamine, Homovanillic acid (HVA) and DOPAC (3,4-Dihydroxy-Phenylacetic Acid) was performed as described previously (Roy, et al. Nature Med. 12:1259-1268 (2006); Studer, et al. Brain Res. Bull. 41:143-150 (1996), all of which are herein incorporated by reference). Culture samples were collected in perchloric acid at day 65 of differentiation. For some experiments DA was measured directly in the medium using the same detection system but following aluminum extraction of dopamine and its metabolites using a commercially available kit as described previously (Studer, et al. Brain Res. Bull. 41:143-150 (1996), herein incorporated by reference). […]

The test system of the next data set is rosette stage cells. Nature of the data set: Rosette-based DA neuron induction culture. In kind it is cell-based, human. Conditions: concentration suitable for patterning floor plate cells. The source says:
Both protocols used dual-SMAD inhibition to accelerate neural fate acquisition. LDN was used for BMP inhibition in the floor plate protocol while the traditional noggin induction was used for rosette cultures. The abbreviations are: LDN: LDN-193189, SB: SB431542, SHH (purmorphamine+SHH C25II), FGF8: FGF8, BAGCT: BDNF+ascorbic acid+GDNF+dbcAMP+TGFβ3. SHH/FGF8 in the rosette protocol used SHH C25I alone in the absence of purmorphamine following the initial recommendation for patterning of rosette-derived DA neuron cultures. […] BASF: BDNF+ascorbic acid+SHH/FGF8.
For rosette-based DA neuron induction previously described protocols were followed in part (Perrier, et al. Proc Natl Acad Sci USA 101:12543-8 (2004), herein incoropoated by reference) with at least one exception where dual-SMAD inhibition was used to accelerate the initial neural induction step. In brief, hESCs were induced towards neural fate by coculture with irradiated MS5 cells in KSR supplemented with SB431542 and Noggin (250 ng/ml (ranging in concentration from 10-1000 ng/ml); R&D), from day 2-8 and SHH+FGF8 from day 6-11 of differentiation. After 11 days in KSR, neural rosettes were manually isolated and cultured (P1 stage) in N2 medium supplemented with SHH, FGF8, BDNF and AA as described previously (Perrier, et al. Proc Natl Acad Sci USA 101:12543-8 (2004), herein incorporated by reference). […]

With `CC(C)[C@@H]1NC(=O)[C@H](C)OC(=O)[C@@H](C(C)C)NC(=O)[C@@H](C(C)C)OC(=O)[C@H](C(C)C)NC(=O)[C@H](C)OC(=O)[C@@H](C(C)C)NC(=O)[C@@H](C(C)C)OC(=O)[C@H](C(C)C)NC(=O)[C@H](C)OC(=O)[C@@H](C(C)C)NC(=O)[C@@H](C(C)C)OC1=O` [valinomycin], the “cell survival PD-iPSC versus control iPSC” value in data set [1] is on record as “differential cell survival”. Further, the “degeneration of TH+ DA neurons” value in data set [2] was “partially degenerated”; in data set [3] (5 uM, 48 hr, floor-plate protocol, day 60), “nearly complete degeneration”. Moreover, the “vulnerability of PD- versus control-derived TH+ neurons” value in data set [3] (classic MS5 based protocol) is listed as “did not show differential vulnerability”.
In the case of `Cc1c[nH]c(-c2cnc(NCCNc3ccc(C#N)cn3)nc2-c2ccc(Cl)cc2Cl)n1` [CHIR99021, 6-(2-(4-(2,4-dichlorophenyl)-5-(4-methyl-1H-imidazol-2-yl)pyrimidin-2-ylamino)ethylamino)nicotinonitrile], the “IC50 against rodent GSK3β homologs” value with rodent GSK3β homologs is listed as “nanomolar”. In addition, in the data set with hESC, the “potency at inducing LMX1A expression compared with recombinant Wnt3A or Wnt1” value was “more potent” and the “timing of exposure giving maximum LMX1A induction” value is given as “day 3-11”. Moreover, in the data set with hESC (day 11), the “LMX1A induction in FOXA2+ floor plate precursors” value is reported as “induced LMX1A” and the “co-expression of FOXA2/LMX1A” value is reported as “induced co-expression”.
In the case of `c1ccc2c(Oc3nc(Nc4ccc(N5CCOCC5)cc4)c4ncn(C5CCCCC5)c4n3)cccc2c1` [Purmorphamine], the “toxicity at rosette stage” value in the data set on rosette stage cells is reported as “shows toxicity”.

B1: FGF8: Fibroblast growth factor 8 (protein, UniProt P55075 23-233, looked up)
Fibroblast growth factor 8: QEGPGRGPALGRELASLFRAGREPQGVSQQHVREQSLVTDQLSRRLIRTYQLYSRTSGKHVQVLANKRINAMAEDGDPFAKLIVETDTFGSRVRVRGAETGLYICMNKKGKLIAKSNGKGKDCVFTEIVLENNYTALQNAKYEGWYMAFTRKGRPRKGSKTRQHQREVHFMKRLPRGHHTTEQSLRFEFLNYPPFTRSLRGSQRTWAPEPR
Take B1: the “co-expression of FOXA2/LMX1A” value with hESC (day 11) is “only marginal effects”.
